Measured values from patent US20240293551A1, “USE OF ST-TYPE LIPID COMPOUNDS IN PREPARATION OF NUCLEIC ACID DELIVERY REAGENT AND RELATED PRODUCT” (INSTITUTE OF BASIC MEDICAL SCIENCES CHINESE ACADEMY OF …, priority 2021, published 2024).

Test system: PGY-sRNA-26
Assay: In vivo delivery study of lipid-nucleic acid mixture (oral gavage, RT-qPCR of PGY-sRNA-26 in tissues)
Parameters: species or system mouse
Conditions: C57BL/6 mice, gavage, 100 μg lipid: 10 nmol PGY-sRNA-26, 12 hours; for delivery efficacy over each tissue and blood tested (broad-spectrum delivery): all tissues and blood tested; for oral delivery of single-stranded sRNA nucleic acids into mouse intestinal tissue: intestine
Experimental: 10 nmol of small RNA (as shown in Table 2) was dissolved in 400 μl of DEPC-treated water in a glass tube, 10 μl of the corresponding lipid stock solution was added such that the lipid mass in the system was 100 μg. The mixture was mixed thoroughly, heated in a 90° C. water bath for 15 minutes, and then cooled naturally to obtain the lipid nucleic acid mixture of lipid and small RNA.
C57BL/6 male mice, approximately 6 weeks old, weighing 20-24 g, were obtained from Beijing Vital River Laboratory Animal Technology Co., Ltd. The mice were housed in the SPF-grade animal facility at the Animal Center of the Institute of Basic Medical Sciences, Chinese Academy of Medical Sciences. The mice were fasted for 12 hours before gavage administration.
The resultant lipid nucleic acid mixture was orally administered to each mouse at a dose of 100 μg lipid: 10 nmol single-stranded 3′-methylated small RNA PGY-sRNA-26.
• 1) Blank group (n=4): mice were administered with 500 μl saline by gavage, this group served as a blank control; • 2) Free uptake group (n=4): mice were directly administered with small RNA PGY-sRNA-26 solution (10 nmol/mouse, 500 μl) by gavage, this group served as a negative control; • 3) Lipid-treated group (n=4): mice were administered with 500 μl lipid nucleic acid mixture prepared in step 2 by gavage.
After 12 hours of gavage administration, 500 μl blood from the eyeball of each mouse was sampled, added to 1.5 ml Trizol Reagent LS (purchased from Invitrogen), thoroughly mixed for lysis. 3 ml of Trizol Reagent LSwas added to tissue samples and homogenized for complete lysis, wherein the sampled tissues include heart, liver, spleen, lung, kidney, stomach, intestine, brain, blood, femur. RNA was extracted from 1 ml of the blood or the tissue lysate following the steps below: • Centrifuge at 4° C., 12,000 rpm for 5 min, discard the precipitate, transfer Trizol to a new centrifuge tube; • Add chloroform at 200 μL chloroform/mL Trizol, shake well, stand at room temperature for 5 min; • Centrifuge at 4° C., 12,000 rpm for 15 min; • Take the upper aqueous phase to another centrifuge tube, add isopropanol at 0.4 mL isopropanol/mL Trizol, mix well, and stand at low temperature for 10-20 min; • Centrifuge at 4° C., 12,000 rpm for 15 min, discard the supernatant, RNA precipitated at the bottom of the tube; • Add 1 mL of 75% ethanol, gently shake the centrifuge tube, suspend the precipitate; • Centrifuge at 4° C., 12,000 rpm for 15 min, discard the supernatant, add 1 mL of 75% ethanol, gently shake the centrifuge tube, suspend the precipitate; • Centrifuge at 4° C., 12,000 rpm for 15 min, discard the supernatant, air-dry at room temperature, dissolve RNA samples in 50 μL RNase-free H2O, measure OD value to quantify RNA concentration. 3.3 Reverse Transcription of sRNA to cDNA:
The reverse transcription system is as follows: Template RNA (200 ng/μL) 10 μL, 10×RT Buffer 2.0 μL, 25×dNTP Mix (100 mM) 0.8 μL, U6 RT stem-loop primer (10 μM) 2.0 μL, PGY-sRNA-26 RT stem-loop primer (10 μM) 2.0 μL, MultiScribe™ Reverse Transcriptase (50 U/μL) 1.0 μL, RNAse Inhibitor (40 U/μL) 1.0 μL, nuclease-free H2O 1.2 μL. After transient centrifugation, the reverse transcription system was placed in a PCR machine with the following reaction conditions: (1) 25° C., 10 min; (2) 37° C., 120 min; (3) 85° C., 5 min; (4) 4° C., stop reaction. After the reaction, add 20 μL RNAse-free ddH2O, adjust the final volume to 40 μL. The stem-loop primers used in this reverse transcription process were synthesized by Beijing Tianyi Huiyuan Biotechnology Co., Ltd. (U6 was used as a standard reference gene to calculate its relative expression, because U6 RT primer was used as a reference gene in relative quantification of RT-qPCR reactions for small RNA): […]

| SMILES | delivery efficacy over each tissue and blood tested (broad-spectrum delivery) | oral delivery of single-stranded sRNA nucleic acids into mouse blood | oral delivery of single-stranded sRNA nucleic acids into mouse brain tissue | oral delivery of single-stranded sRNA nucleic acids into mouse femur | oral delivery of single-stranded sRNA nucleic acids into mouse heart tissue | oral delivery of single-stranded sRNA nucleic acids into mouse intestinal tissue | oral delivery of single-stranded sRNA nucleic acids into mouse kidney tissue | oral delivery of single-stranded sRNA nucleic acids into mouse liver tissue | oral delivery of single-stranded sRNA nucleic acids into mouse lung tissue | oral delivery of single-stranded sRNA nucleic acids into mouse spleen tissue | oral delivery of single-stranded sRNA nucleic acids into mouse stomach tissue |
| --- | --- | --- | --- | --- | --- | --- | --- | --- | --- | --- | --- |
| C[C@]12CCC(=O)C=C1CC[C@H]1[C@@H]3CC[C@](O)(C(=O)CO)[C@@]3(C)C[C@H](O)[C@@]12F [Lipid 534] | exhibited the best delivery efficacy | can effectively orally deliver | can effectively orally deliver | can effectively orally deliver | can effectively orally deliver | can effectively orally deliver | can effectively orally deliver | can effectively orally deliver | can effectively orally deliver | can effectively orally deliver | can effectively orally deliver |
| C[C@H](CCC(=O)O)[C@H]1CC[C@H]2[C@@H]3CC[C@@H]4C[C@H](O)CC[C@]4(C)[C@H]3CC[C@]12C [Lipid 577] | – | can effectively orally deliver | can effectively orally deliver | can effectively orally deliver | can effectively orally deliver | can effectively orally deliver | can effectively orally deliver | can effectively orally deliver | can effectively orally deliver | – | can effectively orally deliver |
| C[C@@H]1CC[C@@]2(OC1)O[C@H]1C[C@H]3[C@@H]4CC[C@H]5C[C@@H](O)CC[C@]5(C)[C@H]4CC(=O)[C@]3(C)[C@H]1[C@@H]2C [Lipid 558] | exhibited the best delivery efficacy | can effectively orally deliver | can effectively orally deliver | can effectively orally deliver | can effectively orally deliver | can effectively orally deliver | can effectively orally deliver | can effectively orally deliver | can effectively orally deliver | can effectively orally deliver | can effectively orally deliver |
| C[C@]12CCC(=O)C=C1CC[C@@H]1[C@@H]2CC[C@]2(C)C(=O)CC[C@@H]12 [Lipid 587] | – | can effectively orally deliver | can effectively orally deliver | – | can effectively orally deliver | – | can effectively orally deliver | – | – | can effectively orally deliver | can effectively orally deliver |
